Test results: US20070073056A1, “4-Substituted Pyrazoline Compounds, their Preparation and Use as Medicaments” (LABORATORIOS DEL DR. ESTEVE, S.A., priority 2005, published 2007)

Molecular target: CB1-receptor (UniProt P20272)
Experiment: binding of the pyrazoline compounds to CB1-receptors (Pharmacological Methods, Part I)
Parameters: other: 10^−7 M; other: 10^−8 M; species or system human or rat
Description: I. In-vitro Determination of Affinity to CB1/CB2-Receptors
The in-vitro determination of the affinity of the inventive 4-substituted pyrazoline compounds to CB1/CB2-Rezeptors is carried out as described in the publication of Ruth A. Ross, Heather C. Brockie et al., “Agonist-inverse agonist characterisation at CB1 and CB2 cannabinoid receptors of L-759633, L759656 and AM630”, British Journal of Pharmacology, 126, 665-672, (1999), whereby the transfected human CB1 and CB2 receptors of Receptor Biology, Inc. are used. The radioligand used for both receptors is [^3H]-CP55940. The respective parts of the description is hereby incorporated by reference and forms part of the present disclosure.
Rat Cerebellum CB1 Binding
Binding affinity to CB1 receptor was evaluated according to a modification of the method described by Govaerts et al., Eur J Pharmac Sci 23, 233-243 (2004). The respective parts of the description is hereby incorporated by reference and forms part of the present disclosure.
Briefly, cerebellum from male wistar rats (250-300 g) were carefully dissected on ice and homogenates were prepared with Potter-Helveheim in a cold 50 mM Tris-HCl solution containing 5 mM MgCl2, 1 mM EDTA and 0.25 M sucrose, pH 7.4. The suspension was centrifuged at […] for 5 minutes. The supernatants were collected and centrifuged 50,000×g for 15 minutes. The resulting pellets were then resuspended in Tris-HCl buffer without sucrose, homogenized and incubated for 15 min at 37° C. in an orbital shaker bath and centrifuged again at 50,000×g for 15 min. Pellets were weighted, resuspended in Tris-HCl buffer without sucrose, homogenized with Ultraturrax at 13,500 rpm for 3×5 seconds and alicuoted in 0.9 ml volumes in Eppendorf tubes. Alicuotes were centrifuged at 20,800×g for 5 minutes, supernatants discarded and pellets were frozen at −80° C. until use. Total protein concentration was determined using the Bio-Rad Lowry method based kit. Competitive binding experiments were performed in presence of 1 nM [^3H]-CP 55,940 in siliconized glass tubes containing 100 μg protein/tube resuspended in 1 ml final volume of 50 mM Tris-HCl, 5 mM MgCl2, 1 mM EDTA, 0.5% (w/v) bovine serum albumin, pH 7.4. Compounds were present at various concentrations and the non specific binding was determined in the presence of 10 μM HU-210. After 1 hour incubation at 30° C., the suspension was rapidly filtered through 0.5% PEI pre-treated GF/B fiber filters on a 96-well harvester and washed 3 times with 3 ml ice-cold binding buffer without bovine serum albumin. Radioactivity on filters was measured with Wallac Winspectral 1414 counter by liquid scintillation in 6 ml Ecoscint H (National Diagnostics, U.K.). Assays were made in triplicates.
Binding data were analyzed by non-linear regression with the software GraphPad Prism Version 3.03.
The binding of the pyrazoline compounds of general formula I to CB1-receptors was determined according to the method described in the section Pharmacological Methods, Part I.

SMILES: COC[C@H]1CCCN1NC(=O)C1=NN(c2ccc(Cl)cc2Cl)[C@H](c2ccc(Cl)cc2)[C@@H]1C.Cl (mixture of isomers) [Example 106, cis-5-(4-chlorophenyl)-1-(2,4-dichlorophenyl)-N-((R)-2-(methoxymethyl)pyrrolidin-1-yl)-4-methyl-4,5-dihydro-1H-pyrazole-3-carboxamide hydrochloride]
- Inhibition (10^−7 M): 39%
- Inhibition (10^−8 M, in %): 20.4

SMILES: COC[C@@H]1CCCN1NC(=O)C1=NN(c2ccc(Cl)cc2Cl)[C@H](c2ccc(Cl)cc2)[C@@H]1C.Cl (mixture of isomers) [Example 107, cis-5-(4-chlorophenyl)-1-(2,4-dichlorophenyl)-N-((S)-2-(methoxymethyl)pyrrolidin-1-yl)-4-methyl-4,5-dihydro-1H-pyrazole-3-carboxamide hydrochloride]
- Inhibition (10^−7 M): 43.9%
- Inhibition (10^−8 M, in %): 2.7

SMILES: C[C@@H]1C(C(=O)N[C@H]2CCCC[C@@H]2O)=NN(c2ccc(Cl)cc2Cl)[C@@H]1c1ccc(Cl)cc1 (mixture of isomers) [Example 128, (+)-cis-5-(4-chlorophenyl)-1-(2,4-dichlorophenyl)-N-((1S,2S)-2-hydroxycyclohexyl)-4-methyl-4,5-dihydro-1H-pyrazole-3-carboxamide]
- Inhibition (10^−7 M): 35.3%
- Inhibition (10^−8 M, in %): 18.0

SMILES: COc1ccc([C@@H]2[C@H](C)C(C(=O)N[C@H]3CCCC[C@@H]3O)=NN2c2ccc(Cl)cc2Cl)cc1 (mixture of isomers) [Example 281, (+)-cis-1-(2,4-dichlorophenyl)-N-((1S,2S)-2-hydroxycyclohexyl)-5-(4-methoxyphenyl)-4-methyl-4,5-dihydro-1H-pyrazole-3-carboxamide]
- Inhibition (10^−7 M): 39.0%
- Inhibition (10^−8 M, in %): 10.2

SMILES: COc1ccc([C@@H]2[C@H](C)C(C(=O)N[C@H]3CCCC[C@@H]3O)=NN2c2ccc(Cl)cc2Cl)cc1 (mixture of isomers) [Example 282, (−)-cis-1-(2,4-dichlorophenyl)-N-((1S,2S)-2-hydroxycyclohexyl)-5-(4-methoxyphenyl)-4-methyl-4,5-dihydro-1H-pyrazole-3-carboxamide]
- Inhibition (10^−7 M): 44.3%
- Inhibition (10^−8 M, in %): 9.6

SMILES: C[C@@H]1C(C(=O)N[C@H]2CCCC[C@@H]2OCc2ccccc2)=NN(c2ccc(Cl)cc2Cl)[C@@H]1c1ccc(Cl)cc1 (mixture of isomers) [Example 409, (+)-cis-N-((1S,2S)-2-(benzyloxy)cyclohexyl)-5-(4-chlorophenyl)-1-(2,4-dichlorophenyl)-4-methyl-4,5-dihydro-1H-pyrazole-3-carboxamide]
- Inhibition (10^−7 M): −5.8%
- Inhibition (10^−8 M, in %): −37

SMILES: C[C@@H]1C(C(=O)N[C@H]2C[C@H]3CC[C@]2(C)C3(C)C)=NN(c2ccc(Cl)cc2Cl)[C@@H]1c1ccc(Cl)cc1 (mixture of isomers) [Example 422, cis-5-(4-chlorophenyl)-1-(2,4-dichlorophenyl)-4-methyl-N-((1R,2S,4R)-1,7,7-trimethylbicyclo[2.2.1]heptan-2-yl)-4,5-dihydro-1H-pyrazole-3-carboxamide]
- Inhibition (10^−7 M): −2%
- Inhibition (10^−8 M, in %): −8.4

SMILES: C[C@@H]1C(C(=O)N[C@@H]2CCCC[C@H]2OCc2ccccc2)=NN(c2ccc(Cl)cc2Cl)[C@@H]1c1ccc(Cl)cc1 (mixture of isomers) [Example 437, (−)-cis-N-((1R,2R)-2-(benzyloxy)cyclohexyl)-5-(4-chlorophenyl)-1-(2,4-dichlorophenyl)-4-methyl-4,5-dihydro-1H-pyrazole-3-carboxamide]
- Inhibition (10^−7 M): 40.9%
- Inhibition (10^−8 M, in %): 14.7

SMILES: CC[C@H]1C(C(=O)O)=NN(c2ccc(Cl)cc2Cl)[C@H]1c1ccc(Cl)cc1 (racemic) [Example 21, cis-5-(4-Chloro-phenyl)-1-(2,4-dichloro-phenyl)-4-ethyl-4,5-dihydro-1H-pyrazole-3-carboxylic acid]
- Inhibition (10^−7 M): 23%
- Inhibition (10^−8 M, in %): 11

SMILES: C[C@H]1C(C(=O)O)=NN(c2ccc(Cl)cc2Cl)[C@H]1c1ccc(F)cc1 (racemic) [Example 221, cis-1-(2,4-dichlorophenyl)-5-(4-fluorophenyl)-4-methyl-4,5-dihydro-1H-pyrazole-3-carboxylic acid]
- Inhibition (10^−7 M): −6.3%
- Inhibition (10^−8 M, in %): −2.2

SMILES: COc1ccc([C@H]2[C@@H](C)C(C(=O)O)=NN2c2ccc(Cl)cc2Cl)cc1 (racemic) [Example 261, cis-1-(2,4-dichlorophenyl)-5-(4-methoxyphenyl)-4-methyl-4,5-dihydro-1H-pyrazole-3-carboxylic acid]
- Inhibition (10^−7 M): −6.9%
- Inhibition (10^−8 M, in %): −5

SMILES: C[C@H]1C(C(=O)O)=NN(c2ccc(Cl)cc2Cl)[C@H]1c1cccs1 (racemic) [Example 367, cis-1-(2,4-dichlorophenyl)-4-methyl-5-(thiophen-2-yl)-4,5-dihydro-1H-pyrazole-3-carboxylic acid]
- Inhibition (10^−7 M): 11%
- Inhibition (10^−8 M, in %): 7.2

SMILES: C[C@H]1C(C(=O)NN2CCCC2)=NN(c2ccc(Cl)cc2Cl)[C@H]1c1ccc(Cl)cc1 (relative stereo) [Example 7, cis-5-(4-Chloro-phenyl)-1-(2,4-dichloro-phenyl)-4-methyl-4,5-dihydro-1H-pyrazole-3-carboxylic acid pyrrolidin-1-ylamide]
- Inhibition (10^−7 M): 41%
- Inhibition (10^−8 M, in %): 20.7

SMILES: C[C@@H]1C(C(=O)NN2CCN(C3CCCC3)CC2)=NN(c2ccc(Cl)cc2Cl)[C@@H]1c1ccc(Cl)cc1.Cl (relative stereo) [Example 100, cis-5-(4-chlorophenyl)-N-(4-cyclopentylpiperazin-1-yl)-1-(2,4-dichlorophenyl)-4-methyl-4,5-dihydro-1H-pyrazole-3-carboxamide hydrochloride]
- Inhibition (10^−7 M): 32.6%
- Inhibition (10^−8 M, in %): 5.4

SMILES: C[C@@H]1C(C(=O)NN2CCOCC2)=NN(c2ccc(Cl)cc2Cl)[C@@H]1c1ccc(Cl)cc1 (relative stereo) [Example 101, cis-5-(4-chlorophenyl)-1-(2,4-dichlorophenyl)-4-methyl-N-morpholino-4,5-dihydro-1H-pyrazole-3-carboxamide]
- Inhibition (10^−7 M): 34.9%
- Inhibition (10^−8 M, in %): 27.7

SMILES: C[C@@H]1C(C(=O)NN2C(=O)c3cccc4cccc(c34)C2=O)=NN(c2ccc(Cl)cc2Cl)[C@@H]1c1ccc(Cl)cc1 (relative stereo) [Example 104, cis-5-(4-Chlorophenyl)-1-(2,4-dichlorophenyl)-4-methyl-4,5-dihydro-1H-pyrazole-3-carboxylic acid (1,3-dioxo-1H,3H-benzo[de]isoquinolin-2-yl)-amide]
- Inhibition (10^−7 M): 31.7%
- Inhibition (10^−8 M, in %): −0.4

SMILES: C[C@@H]1C(C(=O)NN2Cc3cccc4cccc(c34)C2)=NN(c2ccc(Cl)cc2Cl)[C@@H]1c1ccc(Cl)cc1 (relative stereo) [Example 105, cis-5-(4-Chlorophenyl)-1-(2,4-dichlorophenyl)-4-methyl-4,5-dihydro-1H-pyrazole-3-carboxylic acid (1H,3H-benzo[de]isoquinolin-2-yl)-amide]
- Inhibition (10^−7 M): 31.4%
- Inhibition (10^−8 M, in %): 35.9

SMILES: C[C@@H]1C(C(=O)NCC2CCCCC2)=NN(c2ccc(Cl)cc2Cl)[C@@H]1c1ccc(Cl)cc1 (relative stereo) [Example 114, cis-5-(4-chlorophenyl)-N-(cyclohexylmethyl)-1-(2,4-dichlorophenyl)-4-methyl-4,5-dihydro-1H-pyrazole-3-carboxamide]
- Inhibition (10^−7 M): 28.3%
- Inhibition (10^−8 M, in %): −13

SMILES: C[C@@H]1C(C(=O)NN2CCCCCCC2)=NN(c2ccc(Cl)cc2Cl)[C@@H]1c1ccc(Cl)cc1 (relative stereo) [Example 120, cis-N-(azocan-1-yl)-5-(4-chlorophenyl)-1-(2,4-dichlorophenyl)-4-methyl-4,5-dihydro-1H-pyrazole-3-carboxamide]
- Inhibition (10^−7 M): 75.5%
- Inhibition (10^−8 M, in %): 37

SMILES: C[C@@H]1C(C(=O)O)=NN(c2ccc(Cl)cc2Cl)[C@H]1c1ccc(Br)cc1 (relative stereo) [Example 200, trans-5-(4-bromophenyl)-1-(2,4-dichlorophenyl)-4-methyl-4,5-dihydro-1H-pyrazole-3-carboxylic acid]
- Inhibition (10^−7 M): −11.2%
- Inhibition (10^−8 M, in %): 3
